Assay results: US20250161264A1, “(AMPAR-PAM)-NMDA RECEPTOR ANTAGONIST COMBINATION THERAPY FOR TREATMENT OF MENTAL CONDITIONS AND DISORDERS” (Gilgamesh Pharmaceuticals, Inc., priority 2022, published 2025)

Experiments:
Male Sprague Dawley rats = assay: Rat forced swim test (FST); type: in vivo; details: Example 3; Compound 18R 1, 3.2 or 10 mg/kg s.c., second injection vehicle or BIIB-104 0.03 mg/kg; 23.5 h before Swim 2
Protocol: Animals. Male Sprague Dawley rats, aged 8-10 weeks, are used in the experiments. Animals are housed in groups of 2 under controlled temperature (22±3° C.) and relative humidity (30-70%) conditions, with 12-hour light/dark cycles, and with ad libitum food and water. All efforts are made to minimize suffering.
Drugs and Drug Administration. Test compounds, vehicle, and the positive control desipramine are administered subcutaneously (s.c.), with doses calculated based on the free base. A pharmacologically inert vehicle is used. All compounds are administered at a volume of 5 mL/kg. Test compounds (in each case, an AMPAR-PAM+an NMDAR-ant together, or either compound alone) and vehicle are administered 0.5 h after the start of the training swim (Swim 1) and 23.5 h before the test swim (Swim 2). Desipramine is administered 3 times, at 23.5 h, 5 h, and 1 h before the test swim (Swim 2), each time at a dose of 20 mg/kg.
Forced Swim Test (FST). […] Group size is N=10 per treatment. […]
Behavioral scoring is conducted by observers who are blind to the treatment groups. Animals are continuously observed during Swim 2 and the total time spent engaging in the following behaviors is recorded: immobile, swimming, and climbing. […]
Drugs and Drug Administration. Test compounds, vehicle, and the positive control desipramine are administered subcutaneously (s.c.), with doses calculated based on the free base. […]

[1] = test system: Male Wistar Han or Wistar Kyoto rats; assay: Chronic mild stress (CMS) procedure, sucrose intake; type: in vivo, rat; details: stressed rats
Protocol: (§1) Animals. Male Wistar Han or Wistar Kyoto rats (Charles River, Sulzfeld, Germany) are brought into the laboratory at the age of 5 weeks (around 100 g), approximately one month before the start of the experiment. Except for the first 10 days after arrival, when the animals are housed in groups of 10, they are singly housed with food and water freely available, and maintained on a 12-h light/dark cycle in constant temperature (22±2° C.) and humidity (45±5%) conditions.
(§2) Drugs and Drug Administration. Test compounds or vehicle are administered subcutaneously (s.c.), with doses calculated based on the free base. A pharmacologically inert vehicle (e.g., saline) is used. All compounds are administered at a volume of 2 mL/kg. Test compounds (in each case, BIIB-104+Compound 18R together, or either compound alone) and vehicle are administered as described below.
Chronic Mild Stress (CMS) Procedure and Sucrose Preference. Male rats (250-350 g) are habituated to drinking 1% sucrose to establish a stable level of sucrose intake. […]
(§3) After sucrose intake has been measured, rats are dosed with BIIB-104 or vehicle once daily for up to 4 weeks (Table 1).
Sucrose intake is measured once per week, in each case before drug administration for that day (˜24 h after the previous drug administration). […]

[2] = test system: Male Wistar Han or Wistar Kyoto rats; assay: Elevated plus maze (EPM) in CMS rats; type: in vivo, rat; details: stressed rats; third week of drug testing (typically day 16); 5-min test
Protocol: as §1
Drugs and Drug Administration. Test compounds or vehicle are administered subcutaneously (s.c.), with doses calculated based on the free base. A pharmacologically inert vehicle (e.g., saline) is used. […]
as §3
Elevated Plus Maze (EPM), Animals are tested in two non-transparent boxes, which consist of two open (50×11×40 cm) and two closed (50×11×40 cm) arms. […] The animals are placed in the center of the apparatus and the time spent in each arm, and number of entries into open and closed arms are recorded during a 5-min test.
All rats (all groups in Table 1) are assessed in the EPM in the third week of drug testing (typically day 16). Stressed vehicle-treated rats (S1) have higher levels of anxiety measured by a lower % time spent in open arms compared to control vehicle-treated rats (C1). […]

[3] = test system: Male Wistar Han or Wistar Kyoto rats; assay: Novel object recognition (NOR) test in CMS rats; type: in vivo, rat; details: stressed rats; third week of drug testing (typically day 17)
Protocol: as §1
Drugs and Drug Administration. Test compounds or vehicle are administered subcutaneously (s.c.), with doses calculated based on the free base. A pharmacologically inert vehicle (e.g., saline) is used. All compounds are administered at a volume of 2 mL/kg. […]
as §3
Novel Object Recognition (NOR) Test. […] Rats are returned to the open field and the duration of exploration of each object is recorded in a 5-min test. A recognition index is calculated according to the formula: time of novel object exploration minus time of familiar object exploration, divided by total exploration time (novel plus familiar objects). During NOR sessions, the number of line crossings is recorded as a measure of locomotor activity.
All rats (all groups in Table 1) are assessed in the NOR in the third week of drug testing (typically day 17). […]

Male C57BL/6 mice [4] = assay: Accelerating rotarod; type: in vivo, mouse; details: Compound 18R 3.2, 10 or 32 mg/kg s.c.; BIIB-104 0.03 mg/kg s.c. 0-30 min prior; 5 min and 30 min after second injection
Protocol: Animals. Male C57BL/6 mice (8-10 weeks old) are housed in groups of >2 under standard environmentally controlled conditions (22 to 24° C.; relative humidity of 30 to 70%) with a standard 12-h light cycle. Food and water are available ad libitum.
as §2, with “compounds and” for “compounds or”, “vehicle” for “vehicle (e.g., saline)”, “of 10” for “of 2”
Rotarod Procedure. Mice will be trained to stay on a rotating bar (‘rotarod’) on days −4 and −2 by being placed on a bar rotating at 4 rpm for 3 min for 3 sessions separated by ˜10 min. On days −1 and 0, this will be repeated using a faster speed of 15 rpm. Mice that have a fall latency <80 s during training will be omitted from the study. On day 1, mice will be administered (s.c.) vehicle or BIIB-104 (0.03 mg/kg) 0-30 min prior to vehicle or Compound 18R (3.2, 10, or 32 mg/kg), for a total of 8 groups of n=10-12/group. Five min after the second injection, mice will be placed on the rotarod which will accelerate from 4 to 40 rpm over 300 s. The latency of mice to fall will be recorded. […]

Male C57BL/6 mice [5] = assay: Visual discrimination task; type: in vivo, mouse; details: Compound 18R 10, 32 or 100 mg/kg s.c.; BIIB-104 0.03 mg/kg s.c. 0-30 min prior
Protocol: Animals Male C57BL/6 mice (8-10 weeks old) are housed in groups of >2 under standard environmentally controlled conditions (22 to 24° C.; relative humidity of 30 to 70%) with a standard 12-h light cycle. Five days prior to the start of operant conditioning experiments, all subjects are placed on a food restriction diet designed to maintain a stable 80-85% of free feeding weight.
Drugs and Drug Administration. Test compounds and vehicle are administered subcutaneously (s.c.), with doses calculated based on the free base. A pharmacologically inert vehicle is used. All compounds are administered at a volume of 10 mL/kg. Test compounds (in each case, BIIB-104+Compound 18R together, or either compound alone) and vehicle are administered as described below. Mice are tested in a randomized cross-over design such that different compound combinations are tested in the same mice and a sample size of n=8-12/group is achieved. Compound testing sessions are separated by at least 3 days.
Visual Discrimination Procedure. A cohort of mice is trained to perform the visual discrimination task according to published methods (Dillon et al., 2009, Behavioural Brain Research 204, 67-76). The testing apparatus is a standard operant chamber (Med Associates, St Albans, VT). […]

| Molecule | immobility time (Male Sprague Dawley rats) | sucrose intake ([1]; vs vehicle-treated stressed rats, Compound 18R 1.5 mg/kg i.p. day 1, 24 h later) | durability of the effect on sucrose intake ([1]; Compound 18R day 1, then vehicle (S2) or BIIB-104 0.03 mg/kg s.c. (S4) daily days 2-28) | time spent in open arms [2] | preference for the novel object (recognition index) [3] | latency to fall off the rotarod (Male C57BL/6 mice [4]) | visual discrimination test accuracy (Male C57BL/6 mice [5]) |
| --- | --- | --- | --- | --- | --- | --- | --- |
| CN[C@@]1(c2ccc(F)cc2)CCCCC1=O [Compound 18R] | dose-dependent decrease in immobility time | increase in sucrose intake | 1-2 weeks | greater time in the open arms than stressed vehicle-treated rats (S1), but less time than unstressed vehicle-treated rats (C1) | limited preference for exploring the novel object | dose-dependently reduces the latency of mice to fall | dose-dependently decreases visual discrimination test accuracy |
| pesampator [BIIB-104, reference compound] |  |  |  |  |  | does not change latency to fall |  |
